1 compound from patent US20220289686A1, “COMPOSITIONS OF NRF2 INHIBITING AGENTS AND METHODS OF USE THEREOF” (Washington University, priority 2021, published 2022) can be followed below.

SMILES strings stand for the structures. Where two headings read alike, the source gives them in different places.

Data set [1] relates to NRF2 activity in H1299-NQO1-YFP cells. The data set is described as follows: NRF2 activity reporter IC50 in H1299-NQO1-YFP cells vs NRF2 pathway activators (IncuCyte, YFP/mCherry). The data set is classed as cell-based. On the procedure: Readings were taken every 2 hours for at least 24 hours. […] Readings were also taken every 2 hours for 96 hours in and IncuCyte S3.
(§1) YFP total intensity (correlating to NRF2 activity) was normalized to NLS-mCherry (cell number) total intensity to give a ratio (YFP/mCherry). Ratios at one time point at least 24 hours post compounds were added were used. These numbers were then plotted in Graphpad Prism to calculate IC50s. […] From three biological replicates, percent confluence was used for proliferation assays to calculate IC50s, calculations performed using Graphpad Prism.

For data set [2], the system named is NRF2 protein. The data set is described as follows: Western blot analysis of NRF2 protein abundance and downstream targets in cell lines. Format: cell-based. Conditions: western blot; 24-48 hours; PYR 10 μM, analogs 1 μM (104 in HEK293T 10 μM), MTX and PEM 0.1 μM, CG 10 μM. On the procedure:
Western Blots: KYSE70, HEK293T cells were plated and 24 hours later treated with compounds (see figure legends for details). Either at 24 or 48 hours later, cells were scrapped in RIPA buffer (0.2% deoxycholate, 0.1% SDS, 1% NP40, 150 mM NaCl, 50 mM Tris pH 7.4, 2 mM EDTA) supplemented with protease and phosphatase inhibitors, cleared at 14000×g for 15 minutes at 4° C., and supernatants were quantified by BCA assay (Pierce, 23225). Protein samples (20 μg) were prepared with 1×LDS buffer with 100 mM DTT, ran on NuPAGE 4-12% Bis-tris gels, and transferred onto a […] nitrocellulose membrane (Thermo, 88018). All blots were blocked in 5% milk in TBST for 30 minutes. After incubation of the primary antibody overnight at 4° C. and washed three times with 1×TBST, blots were incubated with LI-COR secondary antibodies for 1-2 hours, washed in 1×TBST thrice, and then imaged via a LI-COR Odyssey instrument (Li-COR, Lincoln, Nebr.).
In general terms: In western blotting, separated proteins are transferred to a membrane and probed.

Data set [3] concerns KYSE70 cells. The experiment in a line: Proliferation IC50 (percent confluence, IncuCyte) in KYSE70 cells. Format: cell-based. The following applies: Homo sapiens, KYSE-70; KYSE70, 96-hour time point, one or two experiments; read-out: proliferation IC50. Here is the method: as §1, with “IncuCyte and IC50 calculations: […] […] Readings were taken every 2 hours for at least 24 hours. […] Readings were also taken every 2 hours for 96 hours in and IncuCyte S3. YFP total” for “YFP total”

The test system of another data set is H1299 cells. The experiment in a line: Proliferation IC50 (percent confluence, IncuCyte) in H1299 cells. The data set is classed as cell-based. The following applies: Homo sapiens, NCI-H1299; H1299, 96-hour time point, initial experiment; read-out: proliferation IC50. Here is the method: as §1, with “IncuCyte and IC50 calculations: […] […] Readings were taken every 2 hours for at least 24 hours. […] Readings were also taken every 2 hours for 96 hours in and IncuCyte S3. YFP total” for “YFP total”

Another data set deals with T1, human DHFR (hDHFR) (Homo sapiens, UniProt P00374).
T1 construct: purchased
T1 sequence (P00374 1-187): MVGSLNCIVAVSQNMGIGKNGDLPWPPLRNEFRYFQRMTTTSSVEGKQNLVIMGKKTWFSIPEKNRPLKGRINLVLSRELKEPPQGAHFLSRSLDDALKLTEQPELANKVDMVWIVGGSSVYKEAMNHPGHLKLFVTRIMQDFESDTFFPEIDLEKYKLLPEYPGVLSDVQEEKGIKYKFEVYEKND
The data set is described as follows: Human DHFR enzymatic assay. Format: biochemical. The following applies: in vitro enzymatic assay, hDHFR 3E-3 Units; read-out: hDHFR3E-3 Units IC50 μM + SEM.

Data set [4] can be described thus: Mouse study on analog 115: pharmacokinetic profile and clinical observations. Conditions: for concentration at 7 h: female, CD-1, mouse, plasma. Here is the method: Two tests were conducted, on for a single oral dose of 10 mg/kg and for an intravenous 2 mg/kg dose in female CD-1 mice (n=3 for each group).
Mouse study with Analog 115: All mouse work was performed by Paraza Pharma, Inc. All pertinent information and methods are listed in FIG. 17.

In data set [5] the test system is KYSE70 cells. The data set is described as follows: Metabolomics analysis of KYSE70 cells. Format: cell-based. Conditions: KYSE70, 48 hours; 10 μM PYR, 1 μM 115, 0.1 μM MTX. On the procedure: After 48 hours, 1 ml of media was aliquoted into a clean Eppendorf and kept on ice, and the rest of the media was removed from these dishes. The cells were then washed in water twice and then scrapped in ice cold methanol.

The next data set has as its system AXIN2 and CK1γ1 mRNA. The experiment in a line: qRT-PCR of AXIN2 and CK1γ1 mRNA (not NRF2 target genes) in KYSE70 cells. The data set is classed as cell-based. The following applies: KYSE70, 48 hours; 1 μM 115, 0.1 μM MTX, 0.1 μM PEM. The source says: Single experiment shown. AXIN2 and CK1γ1 were done in same experiment, but separated for discussion. Error bars are SD and * represents p-value <0.05.
qRT-PCR: Total RNA was extracted using PureLink RNA kit following the manufacturers protocol. Primers for qPCR were designed using the National Center for Biotechnology Information's (NCBI) Primer-BLAST platform. For primer sequences, see Table 2. RNA was quantified using a Nanodrop One (Thermo, Waltham, Mass.), and the reverse transcription reaction was performed using 2 μg of RNA with the iSCRIPT Clear kit with DNAse (Biorad, 170-8891). For the qRT-PCR, PowerUP SYBR Green (Thermo, A25741) was used, and data were analyzed on an AB QuantStudio 6 Flex Real Time PCR machine (Applied Biosystems, Foster City, Calif.). ΔCT values were normalized to housekeeping gene RPL13a and then normalized to DMSO for final ΔΔCT value.
(Real-time PCR tracks product formation cycle by cycle.)

For data set [6], the system named is NRF2 protein. The data set is described as follows: Western blot analysis of NRF2 protein abundance and downstream targets in cell lines. The data set is classed as cell-based. Conditions: H1299, 10 μM PYR or 1 μM 115 with 0.5 μM MLN, 24 hours.

For `CCc1nc(N)nc(N)c1-c1cccc(C(F)(F)F)c1` [WCDD115, 6-ethyl-5-(3-(trifluoromethyl)phenyl)pyrimidine-2,4-diamine], the IC50 in [1] (Table 1, activator CDDO 0.1 μM, H1299-NQO1-YFP cells, read-out: CDDO 0.1 μM IC50 μM ± SEM) was determined as 0.052 ± 0.0001 µM; in data set [1] (Table 1, activator SULF 2 μM, H1299-NQO1-YFP cells, read-out: SULF 2 μM IC50 μM ± SEM) it was 0.057 ± 0.003 µM; in [1] (Table 1 and text, average over activators CDDO, PRL295, SULF, H1299-NQO1-YFP cells, read-out: Avg IC50), 0.05 µM; in data set [1] (Table 6 NRF2 inhibitors, read-out: Avg IC50) it was 0.057 µM; in data set [1] (read-out: PRL295 5 μM IC50 AM ± SEM, Table 1, activator PRL295 5 μM, H1299-NQO1-YFP cells), 0.06 ± 0.001 µM; in data set [1] (unit inferred, read-out: IC50), 0.05 µM. For the same compound, the results for the IC50 in the data set with KYSE70 cells [3], in the data set with H1299 cells and on human DHFR (hDHFR) were 31.9 nM, 145 nM and 0.144 ± 0.0224 µM, respectively. Besides, the “potency in NRF2 suppression compared to PYR” value in [1] (relative to PYR) turned out to be 10 fold. Further, in the data set on NRF2 protein [2], the NRF2 protein abundance entry is recorded as “decrease NRF2 protein abundance”. Further, the concentration at 7 h was 76.4 ng/mL in [4] (iv, 2 mg/kg) and about 450 ng/mL in [4] (po, 10 mg/kg). In addition, the “plasma level at 24 hours post dosing” value in data set [4] (oral 10 mg/kg or IV 2 mg/kg, 24 hours post dosing) is on record as “unquantifiable”. Besides, the “reduction potential in the form of glutathione ratios” value in the data set with KYSE70 cells [5] is recorded as “decreased”. In addition, the “AXIN2 and CK1γ1 mRNA” value in the data set on AXIN2 and CK1γ1 mRNA is “some minimal effect on AXIN2”. Further, the “NRF2 protein levels with MLN induced stabilization” value with NRF2 protein [6] is given as “Neither PYR nor 115 can decrease NRF2 protein levels”.
